Assay results as given in patent US20260250320A1, “LIPIDATED PEPTIDE INHIBITORS OF INTERLEUKIN-23 RECEPTOR” (Janssen Pharmaceutica NV, priority 2023, published 2026).
*1 amine or outer side, *2 acyl side, *3 side chain or, on linkers, in order; H or OH if unused. Where a SMILES comes first, the peptide text is derived from it. Bridges are numbered along the chain shown (N, C = ends). Side-chain parts run from the residue outwards. [ ]: non-standard residue; d: D form. The star is where a group is joined. ξ: configuration not given here. Trp(7-Me) = Cc1cccc2c(C[C@H](N)C(=O)O)c[nH]c12; C18 diacid = O=C(O)CCCCCCCCCCCCCCCCC(=O)*; γGlu = O=C(O)[C@H](CCC(=O)[*:2])N[*:1]; 2Nal = N[C@@H](Cc1ccc2ccccc2c1)C(=O)O; AEF = NCCOc1ccc(C[C@H](N)C(=O)O)cc1; X2 = C[N+](C)(C)C[C@@H](CC(=O)O)N*; 3Pal = N[C@@H](Cc1cccnc1)C(=O)O; Pen = CC(C)(S)[C@H](N)C(=O)O; Suc = O=C(CCC(=O)[*:2])[*:1]; Thp = NC1(C(=O)O)CCOCC1; X1 = C[N+](C)(C)CCCCC*; ξN = NC(=O)CC(N)C(=O)O; AEEA = NCCOCCOCC(=O)O; Sar = CNCC(=O)O

How the values were obtained:
[1] = biological target: T1, IL-23R (Homo sapiens, UniProt Q5VWK5); assay: IL23R Reporter Assay; assay type: cell-based; conditions: HEK293 cells containing IL-23R, IL-12Rβ1 and STAT-inducible firefly luciferase reporter; 10 ng/mL IL-23 (EC90); 5 h
T1 construct: HEK293 cells containing IL-23R, IL-12Rβ1 and a firefly luciferase reporter gene driven by a STAT-inducible promoter (Promega); host or cells: HEK293
T1 sequence (Q5VWK5 24-629): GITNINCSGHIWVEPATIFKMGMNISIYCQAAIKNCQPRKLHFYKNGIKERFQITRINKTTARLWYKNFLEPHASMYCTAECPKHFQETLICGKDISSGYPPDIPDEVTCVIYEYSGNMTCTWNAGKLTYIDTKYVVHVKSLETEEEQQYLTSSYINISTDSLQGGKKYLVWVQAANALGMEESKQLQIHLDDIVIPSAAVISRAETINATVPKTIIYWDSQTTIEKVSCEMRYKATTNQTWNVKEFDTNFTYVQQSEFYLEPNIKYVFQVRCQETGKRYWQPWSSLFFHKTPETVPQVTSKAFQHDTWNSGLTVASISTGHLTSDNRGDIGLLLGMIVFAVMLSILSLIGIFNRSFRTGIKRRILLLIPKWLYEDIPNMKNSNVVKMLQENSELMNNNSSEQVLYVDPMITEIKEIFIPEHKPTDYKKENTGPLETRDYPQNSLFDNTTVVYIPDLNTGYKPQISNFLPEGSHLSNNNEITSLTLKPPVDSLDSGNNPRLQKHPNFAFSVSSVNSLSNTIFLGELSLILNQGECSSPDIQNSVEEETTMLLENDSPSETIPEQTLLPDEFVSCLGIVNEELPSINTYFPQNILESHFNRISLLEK
In short: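 HEK293 cells carrying IL-23R, IL-12Rβ1 and a STAT-driven firefly luciferase reporter (4000 cells/well) received compound, then 10 ng/mL IL-23 solution (EC90), and were incubated for 5 h at 37° C. BioGlo luminescence was normalised to IL-23 alone (0%) and 30 μM control inhibitor (100%). IC50 came from a 4-parameter Hill fit.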

[2] = tested on: IL-23-stimulated phosphorylated STAT3 in peripheral blood mononuclear cells (PBMCs); assay: PBMC pSTAT3 Assay; assay type: cell-based; conditions: PBMCs from healthy donors; 30 min preincubation with peptide; IL-23 5 ng/mL for 30 min; phospho-STAT3 by MSD
In short: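 Healthy-donor PBMCs expanded 4 days on anti-CD3 with 100 ng/mL IL-1β, starved ~4 h in RPMI-0.1% BSA, preincubated 30 min with peptide, then stimulated 30 min at 37 °C with 5 ng/mL IL-23. Lysate pSTAT3 measured by MSD phospho-STAT panel; IC50 derived.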

| IC50 [1] | SMILES | IC50 [2] |
| --- | --- | --- |
| ≥ 500 nM | CC(=O)NCCCC[C@@H]1NC(=O)[C@H](Cc2c[nH]c3c(C)cccc23)NC(=O)[C@H]([C@@H](C)O)NC(=O)[C@H](CC(N)=O)NC(=O)[C@@H](NC(=O)[C@@H](CCCNC(=N)N)NC(C)=O)C(C)(C)SSC(C)(C)[C@@H](C(=O)N[C@@H](Cc2ccc(OCCN)cc2)C(=O)N[C@@H](Cc2ccc3ccccc3c2)C(=O)NC2(C(=O)N[C@@H](CCCCNC(=O)CCC(=O)N[C@H](CC(=O)O)C[N+](C)(C)C)C(=O)N[C@@H](CC(N)=O)C(=O)N[C@@H](Cc3cccnc3)C(=O)N(C)CC(=O)N[C@@H](CCCCNC(=O)COCCOCCNC(=O)COCCOCCNC(=O)CC[C@H](NC(=O)CCCCCCCCCCCCCCCCC(=O)O)C(=O)O)C(N)=O)CCOCC2)NC1=O [compound 51, MeCO-r-Pen(3)-N-T-7MeW-K(Ac)-Pen(3)-AEF-2Nal-THP-K(d)-N-3Pya-Sar-K(PEG2PEG2gEC18OH)-CONH2] (Ac-[dR][Pen]NT[Trp(7-Me)]K(Ac)[Pen][AEF][2Nal][Thp]K([Suc-X2])N[3Pal][Sar]K([AEEA-AEEA-γGlu-C18 diacid])-NH2; disulfide 2-7) | < 0.5 nM |
| < 50 nM | CC(=O)NCCCC[C@@H]1NC(=O)[C@H](Cc2c[nH]c3c(C)cccc23)NC(=O)[C@H]([C@@H](C)O)NC(=O)[C@H](CC(N)=O)NC(=O)[C@@H](NC(=O)[C@H](CCCCNC(=O)COCCOCCNC(=O)COCCOCCNC(=O)CC[C@H](NC(=O)CCCCCCCCCCCCCCCCC(=O)O)C(=O)O)NC(C)=O)C(C)(C)SSC(C)(C)[C@@H](C(=O)N[C@@H](Cc2ccc(OCCCCC[N+](C)(C)C)cc2)C(=O)N[C@@H](Cc2ccc3ccccc3c2)C(=O)NC2(C(=O)N[C@@H](CCCCNC(C)=O)C(=O)NC(CC(N)=O)C(=O)N[C@@H](Cc3cccnc3)C(=O)N(C)CC(N)=O)CCOCC2)NC1=O (stereo partly drawn) [compound 62, MeCO-K(PEG2PEG2gEC18OH)-Pen(3)-N-T-7MeW-K(Ac)-Pen(3)-TMAPF-2Nal-THP-K(Ac)-3-Pya-Sar-CONH2] (Ac-K([AEEA-AEEA-γGlu-C18 diacid])[Pen]NT[Trp(7-Me)]K(Ac)[Pen]Y(X1)[2Nal][Thp]K(Ac)[ξN][3Pal][Sar]-NH2; disulfide 2-7) | < 0.5 nM |
| < 50 nM | CC(=O)N(C)CCCC[C@H](CC(=O)C1(NC(=O)[C@H](Cc2ccc3ccccc3c2)NC(=O)[C@H](Cc2ccc(OCCNC(=O)C[N+](C)(C)CCNC(=O)COCCOCCNC(=O)COCCOCCNC(=O)CC[C@H](NC(=O)CCCCCCCCCCCCCCCCC(=O)O)C(=O)O)cc2)NC(=O)[C@@H]2CCCCC(C)[C@H](NC(=O)CCOCCOCC[N+](C)(C)C)C(=O)N[C@@H](CC(=O)N(C)C)N[C@@H]([C@@H](C)O)C(=O)N[C@@H](Cc3c[nH]c4c(C)cccc34)C(=O)N[C@@H](CCCCN(C)C(C)=O)C(=O)N2)CCOCC1)C(=O)C[C@@H](CC(N)=O)C(=O)N[C@@H](Cc1cccnc1)C(=O)N(C)CC(=O)N(C)C (stereo partly drawn) [compound 154, cPEG3aCO-Pen(3)-N(N(Me)2)-T-7MeW-K(NMeAc)-Pen(3)-AEF(SP6PEG2PEG2gEC18OH)-2Nal-THP-K(NMeAc)-N-3Pya-Sar-CON(Me)2] | < 0.5 nM |
| < 50 nM | CC(=O)NCCCC[C@@H]1NC(=O)[C@H](Cc2c[nH]c3c(C)cccc23)NC(=O)[C@H]([C@@H](C)O)NC(=O)[C@H](CCCCNC(=O)CCC(=O)N[C@H](CC(=O)O)C[N+](C)(C)C)NC(=O)[C@@H](NC(=O)[C@@H](CCCNC(=N)N)NC(C)=O)C(C)(C)SSC(C)(C)[C@@H](C(=O)N[C@@H](Cc2ccc(OCCNC(=O)COCCOCCNC(=O)COCCOCCNC(=O)CC[C@H](NC(=O)CCCCCCCCCCCCCCCCC(=O)O)C(=O)O)cc2)C(=O)N[C@@H](Cc2ccc3ccccc3c2)C(=O)NC2(C(=O)N[C@@H](CCC(=O)O)C(=O)N[C@@H](CC(N)=O)C(=O)N[C@@H](Cc3cccnc3)C(=O)N(C)CC(N)=O)CCOCC2)NC1=O [compound 10, MeCO-r-Pen(3)-K(d)-T-7MeW-K(Ac)-Pen(3)-AEF(PEG2PEG2gEC18OH)-2Nal-THP-E-N-3Pya-Sar-CONH2] (Ac-[dR][Pen]K([Suc-X2])T[Trp(7-Me)]K(Ac)[Pen][AEF]([AEEA-AEEA-γGlu-C18 diacid])[2Nal][Thp]EN[3Pal][Sar]-NH2; disulfide 2-7) | 0.5 to 5 nM |
